The record followed here is ChEMBL document CHEMBL3988442, “University of Dundee, Small-Polar-MMV Screening Library” (2021).

A short description of experiment [1]: microbe, parasite or virus in culture. Conditions: Mycobacterium tuberculosis, 96 h, read-out: pIC50 (converted).
Experiment [2] is described as follows: microbe, parasite or virus in culture. Conditions: Mycobacterium tuberculosis, 72 h, read-out: pIC50 (converted).

Structures are written as SMILES.

For the compound `Cc1ccccc1OCCCNC(=O)NC[C@@H](C)O`, the IC50 in experiment [1] and in experiment [2] was above 501 µM in each case.

For `CCc1cc(N(C)Cc2ccncn2)n2nc(C)c(C)c2n1`, the values for the IC50 in experiment [1] and in experiment [2] were 14.2 µM and 33.8 µM, respectively.

For the compound `OCCCN1CCCN(Cc2ccc(F)cc2)CC1`, the IC50 in experiment [1] is above 501 µM; in experiment [2], 186 µM.

Turning to `Cc1cc(=O)[nH]c(-n2nc(-c3ccccc3)cc2N)n1`, the IC50 was above 50.1 µM in experiment [1] and 43.5 µM in experiment [2].

On to `COc1ccc(N2CCCNCC2)cc1`, for which the results for the IC50 in experiment [1] and in experiment [2] were 276 µM and 308 µM, respectively.

As for `COc1ccc2c(c1)CCN2C(=O)C(C)(C)C#N`, the IC50 was 293 µM in experiment [1] and 156 µM in experiment [2].

As to `CN(Cc1c(F)cccc1Cl)C(=O)CNC(=O)C1CC1`, the figures for the IC50 in experiment [1] and in experiment [2] were 71 µM and 237 µM, respectively.

For `CSCCN(C)Cc1cn(-c2ccccc2)nn1`, the IC50 in experiment [1] and in experiment [2] was above 501 µM each time.

For the compound `Cc1cnc(NC(C)Cc2cccnc2)nc1N(C)C` (centres undefined), the IC50 in experiment [1] and in experiment [2] was above 50.1 µM throughout.

As for `COc1ccc(C(C)CO)cc1` (centres undefined), the IC50 in experiment [1] and in experiment [2] was above 501 µM each time.

Regarding `COc1c(C)cnc(CSc2nnc(N)s2)c1C`, the IC50 in experiment [1] and in experiment [2] was above 50.1 µM throughout.

As for `CCCN1CCN(C(=O)COc2ccccc2)CC1`, the IC50 in experiment [1] is 57.3 µM; in experiment [2], 33.3 µM.

For `COC(=O)[C@H](C)NC(=O)C1(c2ccccc2F)CC1`, the IC50 in experiment [1] is above 501 µM; in experiment [2] it was 187 µM.

For the compound `O=C(c1cc(C2CC2)[nH]n1)N1CCN(Cc2ccc3c(c2)OCO3)CC1`, the IC50 was 10.3 µM in experiment [1] and 9.81 µM in experiment [2].

For the compound `OC(CN1CCn2ccnc2C1)c1ccc(Cl)cc1` (centres undefined), the IC50 in experiment [1] is above 501 µM; in experiment [2], 186 µM.

On to `NC(=O)C(Sc1nncs1)c1ccc(Br)cc1` (centres undefined), for which the IC50 is 266 µM in experiment [1] and 412 µM in experiment [2].

On to `CCS(=O)(=O)NC1CCN(c2cc(Br)ccn2)CC1`, for which the IC50 in experiment [1] is above 501 µM; in experiment [2], 146 µM.

For `COc1ccc(C)cc1CCN`, the IC50 is 277 µM in experiment [1] and 272 µM in experiment [2].

In the case of `CSCCNC(=O)c1coc(COc2ccc3sc(C)nc3c2)n1`, the IC50 in experiment [1] and in experiment [2] was above 50.1 µM each time.

Consider `CCOCCC(=O)N1c2ccccc2OCC1C` (centres undefined), for which the IC50 in experiment [1] was above 501 µM; in experiment [2], 97.6 µM.

For the compound `CSc1ccc2c(c1)CCN(C(=O)C1CCNC1)C2` (centres undefined), the results for the IC50 in experiment [1] and in experiment [2] were above 501 µM and 168 µM, respectively.

Take `Cc1ccoc1C(=O)N(C)Cc1nc(C(C)C)no1`: the IC50 in experiment [1] was 179 µM; in experiment [2] it was above 501 µM.

Consider `CCn1nnnc1SCc1cc(C#N)ccc1F`, for which the IC50 in experiment [1] is 87.5 µM; in experiment [2], 42.7 µM.

Take `COc1ccc(CNC(=O)CCC2CCCO2)cn1` (centres undefined): the IC50 is above 501 µM in experiment [1] and 91.5 µM in experiment [2].

With `CC(C)c1ccc(C(N)CNS(C)(=O)=O)cc1` (centres undefined), the IC50 in experiment [1] was 268 µM; in experiment [2], 202 µM.

For `NCCSCc1ccccc1F`, the IC50 was 275 µM in experiment [1] and 231 µM in experiment [2].

`Cc1noc(COCC(=O)N2CCCCC2c2nccs2)n1` (centres undefined): the IC50 in experiment [1] and in experiment [2] was above 50.1 µM throughout.

With `O=C(NCc1cccs1)c1cnsn1`, the IC50 in experiment [1] was 17.4 µM; in experiment [2], 3.61 µM.

`COc1ccc(-c2noc(C(C)n3ccnc3)n2)cn1` (centres undefined): the values for the IC50 in experiment [1] and in experiment [2] were 442 µM and 300 µM, respectively.

`NCC(=O)N1CCCC(CCc2ccc(F)cc2F)C1` (centres undefined): the values for the IC50 in experiment [1] and in experiment [2] were 310 µM and 137 µM, respectively.

Regarding `Cc1ccc(NCc2cccc(O)c2)cc1S(C)(=O)=O`, the figures for the IC50 in experiment [1] and in experiment [2] were 333 µM and 89.7 µM, respectively.

On to `CC(C(N)=O)N1CCC(=Cc2ccccc2)CC1` (centres undefined), for which the IC50 in experiment [1] was 364 µM; in experiment [2], 290 µM.

Consider `Cc1cc2c(cc1S(=O)(=O)N1CCCC(N)C1)OCO2` (centres undefined), for which the IC50 is above 501 µM in experiment [1] and 261 µM in experiment [2].

In the case of `FC(F)(F)c1cccc(NCc2cccnc2)n1`, the values for the IC50 in experiment [1] and in experiment [2] were 275 µM and 85.5 µM, respectively.

For `CCCS(=O)(=O)N(C)Cc1cccc(OCC)n1`, the IC50 in experiment [1] is above 501 µM; in experiment [2] it was 367 µM.

Regarding `O=C(NCC1CC1)N1CCN(Cc2ccc3c(c2)OCCO3)CC1`, the values for the IC50 in experiment [1] and in experiment [2] were 17.9 µM and 45.6 µM, respectively.

`O=C(Cc1ccc2c(c1)CCCC2)Nc1cccnc1N1CCSCC1`: the IC50 in experiment [1] was 9.97 µM; in experiment [2], 12 µM.

For the compound `Clc1cncc(NCC2CN(C3CC3)CCO2)n1` (centres undefined), the IC50 in experiment [1] is 311 µM; in experiment [2], 259 µM.

In the case of `CCOc1cccc(CN(C)S(=O)(=O)c2cccs2)n1`, the values for the IC50 in experiment [1] and in experiment [2] were 191 µM and 144 µM, respectively.

Take `COc1ccc(COCC(=O)N2CCCC(n3cncn3)C2)cc1` (centres undefined): the IC50 in experiment [1] and in experiment [2] was above 50.1 µM in each case.

`CC1c2ccsc2CCN1CCC(=O)NC(N)=O` (centres undefined): the IC50 in experiment [1] is 128 µM; in experiment [2] it was 78.1 µM.

Take `Clc1ccc(COCC2CCN(Cc3ccccn3)CC2)cc1`: the figures for the IC50 in experiment [1] and in experiment [2] were 26.8 µM and 26.2 µM, respectively.

Take `CNc1cc(CN(C)Cc2ccccc2)ccn1`: the IC50 in experiment [1] is 430 µM; in experiment [2], 227 µM.

On to `COc1coc(CN2CCCC(CCc3ccc(F)cc3)C2)cc1=O` (centres undefined), for which the IC50 in experiment [1] is 23.1 µM; in experiment [2], above 50.1 µM.

For `O=C(NCc1ccc(Br)o1)[C@@H]1CCCO1`, the IC50 in experiment [1] was above 501 µM; in experiment [2] it was 242 µM.

For `COC(=O)c1ccc(C(=O)NCc2ccc(Br)cc2)cn1`, the results for the IC50 in experiment [1] and in experiment [2] were 25.6 µM and 24.8 µM, respectively.

Take `CCN1CCCC1CNC(=O)c1cccc(C)n1` (centres undefined): the IC50 in experiment [1] and in experiment [2] was above 501 µM each time.

As for `CCc1nc2n(n1)CC(NCc1nc(C)c(C)o1)CC2` (centres undefined), the IC50 in experiment [1] and in experiment [2] was above 50.1 µM each time.

Regarding `O=C(NC1CC1)N1CCN(c2ncccc2Cl)CC1`, the IC50 in experiment [1] and in experiment [2] was above 501 µM each time.

Consider `COc1cccc(Cl)c1CN1CCCNCC1`, for which the figures for the IC50 in experiment [1] and in experiment [2] were 251 µM and 228 µM, respectively.

Consider `CC(c1nc(COc2ccc(F)cc2)no1)S(C)(=O)=O` (centres undefined), for which the IC50 in experiment [1] is 157 µM; in experiment [2] it was 230 µM.

As to `CCN(C)c1ccc(CNC(=O)CCn2cc(C)cn2)cc1F`, the IC50 in experiment [1] and in experiment [2] was above 50.1 µM in each case.

Consider `Nc1nnc(SCc2coc(-c3ccccc3)n2)[nH]1`, for which the IC50 in experiment [1] and in experiment [2] was above 501 µM in each case.

For `COC(=O)CCCC(=O)N1CCCc2ccc(F)cc21`, the IC50 was 277 µM in experiment [1] and 213 µM in experiment [2].

Take `Cc1ccc(-n2cc(CN3CCOCC3)c(-c3cccc(C)c3)n2)cc1`: the IC50 in experiment [1] was above 50.1 µM; in experiment [2], 24.8 µM.

Turning to `N#CC1(NC(=O)COc2cc(Cl)cc(Cl)c2)CCSC1` (centres undefined), the IC50 in experiment [1] and in experiment [2] was above 50.1 µM each time.

For the compound `O=C(Cc1cccnc1)NCCNc1cccc(Br)c1`, the figures for the IC50 in experiment [1] and in experiment [2] were above 501 µM and 143 µM, respectively.

Regarding `c1cc(-c2ccn(CCN3CCCC3)n2)cc(-c2nccs2)c1`, the IC50 in experiment [1] is 27.4 µM; in experiment [2], 43.6 µM.

Consider `CN(CC(N)=O)Cc1ccccc1N1CCCC1`, for which the figures for the IC50 in experiment [1] and in experiment [2] were above 501 µM and 278 µM, respectively.

Turning to `CCOCC(=O)NCC(Cc1cccc(F)c1)n1cccc1` (centres undefined), the results for the IC50 in experiment [1] and in experiment [2] were 11.7 µM and 10.4 µM, respectively.

Consider `CC(C)N1CC(C(=O)NCc2ccc(S(=O)(=O)N(C)C)cc2)CC1=O` (centres undefined), for which the IC50 in experiment [1] and in experiment [2] was above 50.1 µM each time.

For `N#Cc1cccnc1N1CCCNCC1`, the values for the IC50 in experiment [1] and in experiment [2] were above 501 µM and 480 µM, respectively.

Regarding `Nc1cc(=O)[nH]n1-c1ccc(C(F)(F)F)cn1`, the values for the IC50 in experiment [1] and in experiment [2] were 308 µM and 197 µM, respectively.

As to `CCCN1CCC(Nc2cc(-c3ccccc3)ccc2OC)CC1`, the IC50 in experiment [1] was 32.9 µM; in experiment [2], 23.4 µM.

In the case of `Cc1noc(C)c1CNC(=O)c1csc(S(N)(=O)=O)c1`, the IC50 in experiment [1] and in experiment [2] was above 501 µM throughout.

As for `Cc1cc2nc(C(C)C)cc(N(C)CC3CCCN3C)n2n1` (centres undefined), the IC50 is above 50.1 µM in experiment [1] and 9.21 µM in experiment [2].

In the case of `CCCn1cnnc1-c1nc2c([nH]1)CC(c1ccc(Cl)cc1)CNC2=O` (centres undefined), the values for the IC50 in experiment [1] and in experiment [2] were 14.2 µM and 17.5 µM, respectively.

With `COc1ccnc(NCCS(=O)(=O)c2ccccc2)n1`, the IC50 in experiment [1] and in experiment [2] was above 501 µM in each case.

In the case of `CNC(=O)C1CCN(C(=O)CCc2cccs2)CC1`, the IC50 is 111 µM in experiment [1] and 38.8 µM in experiment [2].

In the case of `Nc1cc(N2CCCC(CO)(Cc3ccccc3F)C2)nc(N)n1` (centres undefined), the IC50 was 45.3 µM in experiment [1] and 47.1 µM in experiment [2].

Consider `CC1CCCCN1S(=O)(=O)N1CCNCC1` (centres undefined), for which the IC50 in experiment [1] and in experiment [2] was above 501 µM in each case.

For the compound `COc1cccc(C(=O)N2CCOC3(CCCN(C(C)=O)C3)C2)c1` (centres undefined), the IC50 in experiment [1] and in experiment [2] was above 50.1 µM throughout.

Consider `Cc1ccc(C(C)NC(=O)Nc2nccn(C)c2=O)o1` (centres undefined), for which the IC50 in experiment [1] and in experiment [2] was above 501 µM in each case.

Consider `OCCCn1nnc(-c2ccccc2)n1`, for which the IC50 in experiment [1] is 120 µM; in experiment [2], 158 µM.

Turning to `CN(CCS(=O)(=O)c1ccc(Cl)cc1)CC(=O)N(C)C`, the IC50 was 105 µM in experiment [1] and 63.6 µM in experiment [2].

As for `CC(=O)NCCCNCc1cccc(C#N)c1`, the IC50 in experiment [1] and in experiment [2] was above 501 µM each time.

As for `CC(C)c1ccccc1OCC(O)CN(C)CCO` (centres undefined), the IC50 is 257 µM in experiment [1] and 123 µM in experiment [2].

For `CS(=O)(=O)NC(c1ccc(F)cc1)c1cccnc1` (centres undefined), the results for the IC50 in experiment [1] and in experiment [2] were above 501 µM and 338 µM, respectively.

Take `CN1CN(Cc2ccc(Cl)o2)CC1=O`: the IC50 in experiment [1] and in experiment [2] was above 501 µM throughout.

As to `COCc1nn(Cc2ccccc2Cl)c(=O)o1`, the IC50 is 393 µM in experiment [1] and 35.9 µM in experiment [2].

With `CCCNC(=O)c1cc(C(C)C)nc(N2CCCC2)n1`, the IC50 in experiment [1] is 41.7 µM; in experiment [2], 11.5 µM.

Consider `CCc1nnc(CN2CCOC3(CCCC3)C2)o1`, for which the IC50 in experiment [1] and in experiment [2] was above 501 µM throughout.
